Measurements taken from PubChem BioAssay AID2060599 (Molecular Pharmacology Branch, DTP, NCI, 2025).
Blank lines part the entries; values can stand above or below the molecule they belong to.

System: 817829-284-R-J1-PDC complex spheroids, viability
Assay: Anticancer human tumor 817829-284-R-J1-PDC patient-derived colon adenocarcinoma cell line growth inhibition [CLK]
Details: for IC50: curve of first compound; for viability, T/C: stronger effect = lower value
How it was run: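 Patient-derived tumor cells grown as complex spheroids with HUVEC endothelial cells and mesenchymal stem cells, treated with drug combinations. Concentrations descend in half-log steps from near clinical Cmax, or from 10 microM if Cmax unknown.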

[1] = second compound 0.0316 µM, first compound 0.0316 µM
[2] = second compound 0.0316 µM, first compound 0.1 µM
[3] = second compound 0.0316 µM, first compound 0.316 µM
[4] = second compound 0.0316 µM, first compound 1 µM
[5] = second compound 0.0316 µM, first compound 3.16 µM
[6] = second compound 0.0316 µM, first compound 10 µM
[7] = second compound 0.1 µM, first compound 0.0316 µM
[8] = second compound 0.1 µM, first compound 0.1 µM
[9] = second compound 0.1 µM, first compound 0.316 µM
[10] = second compound 0.1 µM, first compound 1 µM
[11] = second compound 0.1 µM, first compound 3.16 µM
[12] = second compound 0.1 µM, first compound 10 µM
[13] = second compound 0.316 µM, first compound 0.0316 µM
[14] = second compound 0.316 µM, first compound 0.1 µM
[15] = second compound 0.316 µM, first compound 0.316 µM
[16] = second compound 0.316 µM, first compound 1 µM
[17] = second compound 0.316 µM, first compound 3.16 µM
[18] = second compound 0.316 µM, first compound 10 µM
[19] = second compound 1 µM, first compound 0.0316 µM
[20] = second compound 1 µM, first compound 0.1 µM
[21] = second compound 1 µM, first compound 0.316 µM
[22] = second compound 1 µM, first compound 1 µM
[23] = second compound 1 µM, first compound 3.16 µM
[24] = second compound 1 µM, first compound 10 µM
[25] = second compound 3.16 µM, first compound 0.0316 µM
[26] = second compound 3.16 µM, first compound 0.1 µM
[27] = second compound 3.16 µM, first compound 0.316 µM
[28] = second compound 3.16 µM, first compound 1 µM
[29] = second compound 3.16 µM, first compound 3.16 µM
[30] = second compound 3.16 µM, first compound 10 µM
[31] = second compound 10 µM, first compound 0.0316 µM
[32] = second compound 10 µM, first compound 0.1 µM
[33] = second compound 10 µM, first compound 0.316 µM
[34] = second compound 10 µM, first compound 1 µM
[35] = second compound 10 µM, first compound 3.16 µM
[36] = second compound 10 µM, first compound 10 µM
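Note: spheroids exposed to the agents for seven days before readout.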

Structure (SMILES): O=c1[nH]cc(F)c(=O)[nH]1 + CN1CCN(c2cc(C(=O)Nc3cc4cc(-c5cnn(C)c5)ccc4cn3)ccn2)CC1
IC50 (second compound 0.0316 µM): 851 nM
IC50 (second compound 0.1 µM): < 31.6 nM
IC50 (second compound 0.316 µM): < 31.6 nM
IC50 (second compound 1 µM): < 31.6 nM
IC50 (second compound 3.16 µM): < 31.6 nM
IC50 (second compound 10 µM): < 31.6 nM
viability, T/C [1]: 72.7%
viability, T/C [2]: 66.3%
viability, T/C [3]: 57.1%
viability, T/C [4]: 52.4%
viability, T/C [5]: 33.8%
viability, T/C [6]: 26.3%
viability, T/C [7]: 18.2%
viability, T/C [8]: 17.6%
viability, T/C [9]: 22.3%
viability, T/C [10]: 20.8%
viability, T/C [11]: 18.9%
viability, T/C [12]: 15.9%
viability, T/C [13]: 2.25%
viability, T/C [14]: 2.52%
viability, T/C [15]: 1.94%
viability, T/C [16]: 2.49%
viability, T/C [17]: 2.36%
viability, T/C [18]: 2.06%
viability, T/C [19]: 0.14%
viability, T/C [20]: 0.12%
viability, T/C [21]: 0.18%
viability, T/C [22]: 0.07%
viability, T/C [23]: 0.07%
viability, T/C [24]: 0.05%
viability, T/C [25]: 0.14%
viability, T/C [26]: 0.11%
viability, T/C [27]: 0.11%
viability, T/C [28]: 0.1%
viability, T/C [29]: 0.15%
viability, T/C [30]: 0.14%
viability, T/C [31]: 0.07%
viability, T/C [32]: 0.08%
viability, T/C [33]: 0.1%
viability, T/C [34]: 0.11%
viability, T/C [35]: 0.13%
viability, T/C [36]: 0.08%

IC50 (second compound 0.0316 µM): < 31.6 nM
IC50 (second compound 0.1 µM): < 31.6 nM
IC50 (second compound 0.316 µM): < 31.6 nM
IC50 (second compound 1 µM): < 31.6 nM
IC50 (second compound 3.16 µM): < 31.6 nM
IC50 (second compound 10 µM): < 31.6 nM
Structure (SMILES): CCCS(=O)(=O)Nc1ccc(F)c(C(=O)c2c[nH]c3ncc(-c4ccc(Cl)cc4)cc23)c1F + CNC(=O)c1ccc(Nc2nc(OC3CCCC3)c3c(-c4ccc5nc(C)oc5c4)c[nH]c3n2)c(OC)c1
viability, T/C [1]: 31.8%
viability, T/C [2]: 23.5%
viability, T/C [3]: 33.4%
viability, T/C [4]: 27%
viability, T/C [5]: 33%
viability, T/C [6]: 10.1%
viability, T/C [7]: 19.1%
viability, T/C [8]: 16.2%
viability, T/C [9]: 16.2%
viability, T/C [10]: 20.5%
viability, T/C [11]: 21.1%
viability, T/C [12]: 16.3%
viability, T/C [13]: 38%
viability, T/C [14]: 22.6%
viability, T/C [15]: 18%
viability, T/C [16]: 15.2%
viability, T/C [17]: 18.3%
viability, T/C [18]: 15.7%
viability, T/C [19]: 17.8%
viability, T/C [20]: 15%
viability, T/C [21]: 18.6%
viability, T/C [22]: 12.8%
viability, T/C [23]: 11.6%
viability, T/C [24]: 6.76%
viability, T/C [25]: 16.4%
viability, T/C [26]: 15.9%
viability, T/C [27]: 21.2%
viability, T/C [28]: 22.2%
viability, T/C [29]: 9.76%
viability, T/C [30]: 12.3%
viability, T/C [31]: 21.7%
viability, T/C [32]: 17.4%
viability, T/C [33]: 12%
viability, T/C [34]: 17.2%
viability, T/C [35]: 9.32%
viability, T/C [36]: 5.05%
